Patent US20090156669A1, “COMBINATION OF ACTIVE INGREDIENTS WITH INSECTICIDAL AND ACARICIDAL PROPERTIES” (Bayer CropScience AG, priority 2006, published 2009)

Tested on: Tetranychus urticae
Assay: Tetranychus urticae test (OP-resistant, dip application)
Format: in vivo
Conditions: dip application of infested bush beans (Phaseolus vulgaris), OP-resistant spider mites
Procedure: Tetranychus urticae—Test (OP-Resistent, Dip Application)
To produce a suitable preparation of active compound, 1 part by weight of active compound is mixed with the stated amounts of solvent and emulsifier, and the concentrate is diluted with water to the desired concentrations.
Busch beans (Phaseolus vulgaris), which are heavily infected by the greenhouse red spider mite (Tetranychus urticae) are dipped into an active compound preparation of the desired concentration.
After the desired period of time, the kill in % is determined. 100% means that all spider mites have been killed; 0% means that none of the spider mites have been killed.

| SMILES | Kill in % after 6 d (100 ppm) [%] | Kill in % after 6 d (0.16 ppm) [%] |
| --- | --- | --- |
| CC1(C)[C@H](/C=C(\Cl)C(F)(F)F)[C@@H]1C(=O)O[C@H](C#N)c1cccc(Oc2ccccc2)c1 [gamma-cyhalothrin] | 65 |  |
| Cc1cc(C)c(C2=C(OC(=O)CC(C)(C)C)C3(CCCC3)OC2=O)c(C)c1 [spiromesifen] |  | 0 |
